Patent US20100317001A1, “METHOD OF USING TUMOUR RNA INTEGRITY TO MEASURE RESPONSE TO CHEMOTHERAPY IN CANCER PATIENTS” (LAURENTIAN UNIVERSITY, priority 2007, published 2010)

Experiments:
[1] = dose level 6, epirubicin plus docetaxel every 3 weeks (Schedule A) with pegfilgrastim support
Experimental: Patients were from a national clinical trial hosted by the National Cancer Institute of Canada Clinical Trials Group (referred to as group “MA.22”) and were treated with increasing dose levels of both epirubicin and docetaxel, with pegfilgrastim support to reduce neutropenia associated with this therapy.

breast cancer = conditions: after anthracycline-based chemotherapy; cited from earlier work

SMILES | maximum tolerated dose [1] [mg/m^2] | breast cancer patients that respond (breast cancer) [%]
CC(=O)O[C@@]12CO[C@@H]1C[C@H](O)[C@@]1(C)C(=O)[C@H](O)C3=C(C)[C@@H](OC(=O)[C@H](O)[C@@H](NC(=O)OC(C)(C)C)c4ccccc4)C[C@@](O)([C@@H](OC(=O)c4ccccc4)[C@H]21)C3(C)C [docetaxel] | 75 | 35.4
COc1cccc2c1C(=O)c1c(O)c3c(c(O)c1C2=O)C[C@@](O)(C(=O)CO)C[C@@H]3O[C@H]1C[C@H](N)[C@@H](O)[C@H](C)O1 [epirubicin] | 105 | 
CC(=O)O[C@H]1C(=O)[C@@]2(C)[C@H]([C@H](OC(=O)c3ccccc3)[C@]3(O)C[C@H](OC(=O)[C@H](O)[C@@H](NC(=O)c4ccccc4)c4ccccc4)C(C)=C1C3(C)C)[C@]1(OC(C)=O)CO[C@@H]1C[C@@H]2O [paclitaxel] |  | 33
